Data published in patent US5334723A, “2-piperidinecarboxylic acid derivative, oncogene suppressor and agent for obtaining revertants” (Meiji Seika Kaisha, Ltd., priority 1991, dated 1994).
≈ marks a conversion by molar mass, not a printed value.

Tests used:
[1] = Acute toxicity, intravenous administration to male BDF mice; format: in vivo, mouse; settings: 3 mice per group
Description: The compounds of the present invention were intravenously administered to male BDF mice in order to examine the acute toxicity (each group having 3 mice).

[2] = system: P388 cells (mouse leukemia); test: Antitumor effect on mouse tumor cells (MTT assay), P388; format: cell-based; settings: 72 h, 3-day incubation
Description: (§1) The P388 and L1210 cells are derived from mouse leukemia. The MethA cells, the 3LL cells and the B16 cells are derived from solid cancer, Lewis lung cancer and melanoma, respectively.
(§2) The cells subcultured in a CO2 incubator were each suspended in an RPM1 medium or Dulbecco's modified MEM medium, supplemented with 10%(v/v) fetal serum so as to give a cell density of 5×10^4 cells/mi. To a 135 μl portion of the suspension was added each test compound shown in Table 1 followed by 3-day incubation in a CO2 incubator. After the incubation was completed, 50% inhibition concentration (IC50) was determined by the MTT assay (Igaku no Ayumi, 128, 733 (1984)).

[3] = system: L1210 cells (mouse leukemia); test: Antitumor effect on mouse tumor cells (MTT assay), L1210; format: cell-based; settings: 72 h, 3-day incubation
Description: as §1, §2

[4] = system: MethA cells (solid cancer); test: Antitumor effect on mouse tumor cells (MTT assay), MethA; format: cell-based; settings: Meth-A, 72 h, 3-day incubation
Description: as §1, §2

[5] = system: 3LL cells (Lewis lung cancer); test: Antitumor effect on mouse tumor cells (MTT assay), 3LL; format: cell-based; settings: 72 h, 3-day incubation
Description: as §1, §2

[6] = system: B16 cells (melanoma); test: Antitumor effect on mouse tumor cells (MTT assay), B16; format: cell-based; settings: 72 h, 3-day incubation
Description: as §1, §2

[7] = system: HL60 cells (human leukemia); test: Antitumor effect on human tumor cells (MTT assay), HL60; format: cell-based; settings: HL-60, same manner as Test Example 1
Description: as §2
(§3) The antitumor effects of the compounds of the present invention were evaluated in the same manner as in Test Example 1 except that various human tumor cells were employed. The HL60 cells, the CCRF-CCM cells and the QG5 cells are derived from human leukemia, human T cells and human lung cancer, respectively.

[8] = system: CCRFCEM (human T cells); test: Antitumor effect on human tumor cells (MTT assay), CCRFCEM; format: cell-based; settings: CCRF-CEM, same manner as Test Example 1
Description: as §2, §3

[9] = system: OG56 (human lung cancer); test: Antitumor effect on human tumor cells (MTT assay), OG56; format: cell-based; settings: same manner as Test Example 1
Description: as §2, §3

[10] = system: NIH3T3 cells transformed with the activated ras gene; test: Growth inhibition of NIH3T3 cells transformed with activated c-Ha-ras gene; format: cell-based, mouse; settings: 40 μg/ml, 1st to 6th days, FIG. 1
Description: (§4) NIH3T3 cells transformed with the activated ras gene (Proc. Natl. Acad. Sci. USA, 81, 4771-4775 (1984)) and normal NIH3T3 cells were incubated in a Dulbecco-modified Eagle medium containing 5% bovine serum. The initial cell concentrations were adjusted to 1×10^4 cells/mi. The compound obtained in Example 3 was added to a concentration of 40 μg/ml and the cell numbers were counted with the lapse of time from the 1st to the 6th days.

[11] = system: normal NIH3T3 cells; test: Growth of normal NIH3T3 cells; format: cell-based, mouse; settings: 40 μg/ml, 1st to 6th days, FIG. 1
Description: as §4

[12] = system: NIH3T3 cells transformed with the activated c-Ha-ras gene; test: Acquisition of revertant cells from transformed NIH3T3 cells, microscopic observation; format: cell-based, mouse; settings: 40 μg/ml, 6 days
Description: (§5) NIH3T3 cells transformed with the activated c-Ha-ras gene and normal NIH3T3 cells were incubated for 6 days in the presence of 40 μg/ml of the compound obtained in Example 3 under the same conditions as in Example 6. The cells were microscopically observed in detail.

[13] = system: normal NIH3T3 cells; test: Morphology of normal NIH3T3 cells, microscopic observation; format: cell-based, mouse; settings: 40 μg/ml, 6 days
Description: as §5

[14] = system: ras gene product p21; test: Expression of ras gene product p21 in revertant cells (Western blotting); format: cell-based; settings: revertants isolated in Example 7, FIG. 2
Description: 2×10^6 portions of these cells were collected and each suspended in 1 ml of a buffer solution (100 mM NaCl, 20 mM Tris hydrochloride (pH 7.5), 5 mM MgCl2, 1% NonidetP-40 (polyoxyethylene(9)p-tert-octylphenol), 0.5% sodium deoxycholate, protease inhibitor) and then ground with a Potter homogenizer. After centrifuging at 3600 r.p.m. for 60 minutes, 10 μg portions of proteins were isolated from the supernatant by 12.5% polyacrylamide gel electrophoresis.
Then, the proteins in the gel were transferred into a nitrocellulose membrane and reacted with NCC-RAS-004, which was a monoclonal antibody for p21, at 4° C. for 24 hours to perform Western blotting. After reacting with rat Ig and ^125 I-Protein A, radioautography was performed.

[15] = system: revertant cells transplanted onto BALB/C nude mice; test: Carcinogenic ability of revertant cells on nude mouse; format: in vivo; settings: revertants of Example 7, 3×10^5 cells
[16] = system: NIH3T3 cells transformed with the activated ras gene; settings: JP-A-1-110627, cited from earlier work
[17] = system: normal NIH3T3 cells; settings: 500 μg/ml, JP-A-1-110627; cited from earlier work
[18] = Proceedings of 50th General Meeting of Japan Society of Cancer, 1991; cited from earlier work

| Structure (SMILES) | Survival dose (doses causing no death) [1] | IC50 [2] | IC50 [3] | IC50 [4] | IC50 [5] | IC50 [6] | IC50 [7] | IC50 [8] | IC50 [9] | growth inhibition of NIH3T3 cells transformed with the activated ras gene [10] | growth of normal NIH3T3 cells [11] | death of transformed NIH3T3 cells [12] | revertants among surviving transformed NIH3T3 cells (morphology) [12] | morphological change of normal NIH3T3 cells [13] | expression of activated p21 in revertants [14] | tumor formation by revertants on nude mice [15] | growth inhibition of NIH3T3 cells transformed with the activated ras gene (azatyrosine) ([16]; 500 μg/ml) | nature of cells surviving after treatment with azatyrosine [16] | growth inhibition of normal NIH3T3 cells (azatyrosine) [17] | antitumor activity [18] |
| --- | --- | --- | --- | --- | --- | --- | --- | --- | --- | --- | --- | --- | --- | --- | --- | --- | --- | --- | --- | --- |
| N=C1C=CCC(C(=O)O)N1 (stereo not drawn) [Compound of Ex. 4] | 600 mg/kg | – | – | – | – | – | – | – | – | – | – | – | – | – | – | – | – | – | – | – |
| O=C1C=CC[C@@H](C(=O)O)N1 [Compound of Ex. 1] | 1000 mg/kg | 200 µg/mL (≈ 1420 µM) | 130 µg/mL (≈ 921 µM) | 100 µg/mL (≈ 709 µM) | 100 µg/mL (≈ 709 µM) | 90 µg/mL (≈ 638 µM) | 90 µg/mL (≈ 638 µM) | 90 µg/mL (≈ 638 µM) | 180 µg/mL (≈ 1280 µM) | – | – | – | – | – | – | – | – | – | – | – |
| O=C(O)[C@@H]1CC=CC(=S)N1 [Compound of Ex. 3] | 800 mg/kg | 5 µg/mL (≈ 31.8 µM) | 9 µg/mL (≈ 57.3 µM) | 11 µg/mL (≈ 70 µM) | 11 µg/mL (≈ 70 µM) | 45 µg/mL (≈ 286 µM) | 20 µg/mL (≈ 127 µM) | 20 µg/mL (≈ 127 µM) | 70 µg/mL (≈ 445 µM) | inhibited the growth | continued to grow | partially died | revertants which were flat and had nuclei and nucleoli morphologically similar to the normal NIH3T3 cells | no morphological change | the activated p21 was expressed in the revertants | scarcely induced tumor formation | – | – | – | – |
| N[C@@H](Cc1ccc(O)cn1)C(=O)O [azatyrosine, L-β-(5-hydroxy-2-pyridyl)alanine] | – | – | – | – | – | – | – | – | – | – | – | – | – | – | – | – | selectively inhibited the growth | revertant cells | never inhibited the growth | – |
| N=C1C=CC[C@@H](C(=O)O)N1 [SF2698] | 300 mg/kg | 120 µg/mL (≈ 856 µM) | 65 µg/mL (≈ 464 µM) | 46 µg/mL (≈ 328 µM) | 51 µg/mL (≈ 364 µM) | 41 µg/mL (≈ 293 µM) | 45 µg/mL (≈ 321 µM) | 45 µg/mL (≈ 321 µM) | 80 µg/mL (≈ 571 µM) | – | – | – | – | – | – | – | – | – | – | has an antitumor activity |
